Results on two compounds are retold here after patent publication US10076503B2 (priority 2014, dated 2018).

Data set [1] can be described thus: clinical. As to conditions: human, in vivo. Here is the method: Upon oral administration, methylphenidate is rapidly and completely absorbed from the gastrointestinal tract. Peak concentrations occur 1 to 2 hours after dose administration. […] When methylphenidate and cocaine are administered intravenously, their pharmacokinetics are quite similar—the percentage of each drug taken up by the brain and their rates of uptake are parallel, although the clearance from the brain of cocaine is faster than that of methylphenidate. The receptor-binding affinities for cocaine and methylphenidate are similar at the dopamine transporter in the basal ganglia and the striatum. […] Thus it appears that abuse may be related to a rapid surge in dopamine levels in the striatum. […] The consequence of the slow increase in dopamine is the absence of a “high”, and the consequence of the long T1/2 is that serum concentration gradually increases to a steady state.

Data set [2] concerns adults with ADHD. It counts as in vivo, human. As to the method: The study consisted of three periods including Screening, Treatment, and Washout/Follow-up, as described below. Efficacy was evaluated using the ADHD Rating Scale Version IV (ADHD RS-IV) with adult prompts. Effects on cognition were evaluated using the clinical data repository system. Safety and tolerability were monitored throughout the study by collection of physical examinations, 12-lead electrocardiograms (ECG), vital signs, adverse events (AEs), hematology, blood chemistry, urinalysis, Insomnia Severity Index (ISI), and Columbia—Suicide Severity Rating Scale (C-SSRS).
Subjects self-administered the study drug at home on Days 1 through 28, at approximately the same time each night. After Day 1 subjects returned to the clinic on Days 8, 15, 22, and 29. Beginning at Day 1 and at every visit during the treatment period, the ADHD RS-IV, Wender-Reimherr Adult Attention Deficit Disorder Scale (WRAADDS), and clinical global impression—severity (CGI-S) were completed. The clinical data repository system was administered at Baseline, and Days 15 and 29.
At Days 36 and 43, subjects returned to the clinic and the ADHD RS-IV, WRAADDS, and CGI-S were completed. The clinical data repository system was completed on Day 43.

For data set [3], the target named is T1, DAT sites (Homo sapiens, UniProt Q01959).
T1 construct: from tissue; host or cells: brain in vivo (my inference)
The data set can be described thus: DAT site occupancy versus serum concentration (other studies, not shown). The note with it: in vivo.

The test system of data set [4] is healthy recreational stimulant users. The data set can be described thus: single-dose crossover abuse potential study, placebo- and methylphenidate-controlled. The class given is in vivo, human. An excerpt: A single-dose, randomized, double-blind, double-dummy, placebo- and active-controlled crossover study with 6 Treatment Visits per subject was undertaken. […] Subjects participated in a medical screening visit (Visit 1), one 4-day inpatient qualification phase (Visit 2), a treatment phase (Visits 3 to 8) consisting of six 5-day inpatient treatment visits, and a safety follow-up visit (Visit 9). Within 21 days of the screening visit, subjects were enrolled and attended a qualification phase in which they received either 60 mg methylphenidate or matching placebo in a randomized double-blind crossover manner. Dosing times were separated by approximately 24 hours to ensure that subjects could discriminate and show positive effects of the positive control.
Healthy female and male subjects aged 18 to 55 years (inclusive), who were recreational central nervous system (CNS) stimulant users with cocaine experience and who had passed the methylphenidate qualification phase, were randomized into the treatment.
Drug administration occurred on Day 1 of each treatment visit followed by pharmacodynamic (PD), pharmacokinetic (PK), and safety assessments conducted for up to 72 hours post-dose. […] Subjects were randomized to one of 6 treatment sequences according to a 6×6 William square design. The capsules received at each treatment visit (Visits 3 to 8) were identical. Serial pharmacodynamic and pharmacokinetic evaluations were taken at each treatment visit. Pharmacokinetic analysis was performed for dasotraline. Safety monitoring included regular assessments of vital signs, clinical laboratory tests, and adverse events (AEs), as well as continuous telemetry monitoring for at least 12 hours post-dose. Treatment visits were separated by a washout interval of at least 21 days (from the day of dosing). Subjects returned for the safety follow-up visit within approximately 14 days following the end of the last treatment visit.

For data set [5] the following is noted: cited from earlier work.
Setting [6] is: methylphenidate 40 mg and 80 mg, single dose.

T1 sequence (Q01959 whole entry): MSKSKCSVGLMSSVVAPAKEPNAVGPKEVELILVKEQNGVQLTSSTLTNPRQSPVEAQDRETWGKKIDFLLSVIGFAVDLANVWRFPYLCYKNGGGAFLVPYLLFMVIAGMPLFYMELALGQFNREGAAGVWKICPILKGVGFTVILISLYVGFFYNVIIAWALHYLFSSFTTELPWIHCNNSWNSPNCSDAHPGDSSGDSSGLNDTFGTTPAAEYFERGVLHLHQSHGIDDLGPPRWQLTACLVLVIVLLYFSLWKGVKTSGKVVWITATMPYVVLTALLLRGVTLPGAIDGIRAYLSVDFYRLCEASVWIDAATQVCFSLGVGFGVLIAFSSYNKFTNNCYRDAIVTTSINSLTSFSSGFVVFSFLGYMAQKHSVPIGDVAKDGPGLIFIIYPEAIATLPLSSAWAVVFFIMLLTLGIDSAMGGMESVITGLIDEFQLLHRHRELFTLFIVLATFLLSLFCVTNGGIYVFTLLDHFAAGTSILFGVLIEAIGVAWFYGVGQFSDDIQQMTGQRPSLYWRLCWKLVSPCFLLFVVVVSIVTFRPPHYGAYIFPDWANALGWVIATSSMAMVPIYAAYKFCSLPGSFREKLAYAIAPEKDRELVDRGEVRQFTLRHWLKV

One may read the Cmax as the maximum level reached in the sampled fluid or tissue. By Tmax is commonly meant the time at which the peak concentration occurs. Broadly, the half-life is the time in which the quantity being followed falls by half. Higher therefore signals slow loss. `N[C@@H]1CC[C@@H](c2ccc(Cl)c(Cl)c2)c2ccccc21` [dasotraline, (1R,4S)-4-(3,4-Dichlorophenyl)-1,2,3,4-tetrahydronaphthalen-1-amine]: in data set [1] (4 mg), the Cmax is roughly 1.5 ng/mL and the Tmax was greater than 6 h. Besides, in data set [1] (po), the Tmax was in the range of 10 to 12 h and the half-life fell in the range of 47 to 77 h. Further, in data set [2] (4 mg once daily), the “anxiety leading to discontinuation” value is reported as 2.6%; the “computerized cognitive assessment battery: attention, working memory, episodic memory” value was “no significant main effects”; the “insomnia leading to discontinuation” value is recorded as 2.6%. For the same compound, in data set [2] (4 mg once daily versus placebo), the “Wender-Reimherr ADD total score” value is recorded as “did not improve enough to achieve statistical significance” and the “treatment-emergent adverse events (TEAEs), percentage” value was “higher than the percentage of TEAEs in the placebo group”. Besides, the “Wender-Reimherr subscore for the attention difficulties component” value in data set [2] (4 mg once daily versus placebo, week 4) is given as “statistically significant improvement”. Moreover, the “serum concentration as a function of time” value in data set [2] (4 mg once daily, 4 weeks) is recorded as “began to plateau by week four”. Further, the “ADHD RS-IV total score, LS mean change from baseline versus placebo” value in data set [2] (4 mg once daily, to week four, p<0.05, FIG. 1) was “statistically different at weeks three and four”. Also, the “CGI-S score, LS mean change from baseline versus placebo” value in data set [2] (4 mg once daily, to week four, p<0.05, FIG. 2) was “statistically different at weeks three and four”. Further, the “incidence of adverse events rated as severe” value in data set [2] (4 mg once daily, placebo group 2.7%) stood at 6%. For the same compound, in data set [2] (4 mg/d), the “mean concentrations at steady state” value came out at 6 ng/mL. In data set [2] (4 mg/d, indicative of central inhibition of norepinephrine transporters), the “circulating DHPG levels” value is “decreased circulating DHPG levels”. Further, in data set [2] (oral dosage form containing 4 mg), the “time of administration to statistically significant improvement in ADHD” value is on record as “about two to three”. Also, the “serum concentration at which 50% DAT site occupancy was achieved” value in data set [3] was in the range of 5 to 6 ng/mL. For the same compound, the “differences from placebo on pharmacodynamic endpoints” value in data set [4] (16 mg single dose) is recorded as “very few statistically significant differences from placebo”. In data set [4] (dasotraline 8, 16 and 36 mg, single dose), the “effects on most pharmacodynamic endpoints versus placebo” value is “not significantly different from those of placebo”.
`COC(=O)C(c1ccccc1)C1CCCCN1` (stereo not shown) [methylphenidate]: in data set [4] (setting [6]), the “Drug Similarity Visual Analog Scale” value is recorded as “strongly identified as a stimulant”; the “majority of pharmacodynamic endpoints incl. Drug Liking Visual Analog Scale, versus placebo” value is given as “significant differences compared to placebo”; the secondary stimulant measures entry is “strong stimulant effects”. For the same compound, the pharmacokinetic half-life result in data set [5] (in vivo) was “approximately 2 hours”. Besides, in data set [5] (oral administration), the “time of peak concentrations after dose administration” value is 1 to 2 h.
